Like-named read-outs stand apart in the source and are kept apart here.

Series [1] relates to multiple myeloma cell line U266B1. The experiment in a line: U266 Cell Viability Assay. Type of series: cell-based, human. Conditions: Homo sapiens, U-266, 48 h, U266B1 cells, Celltiter-Glo. In outline: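 Luminescent ATP read-out (CellTiter-Glo) after 48 h compound exposure at 37° C., 5% CO2; cells maintained in RPMI 1640/10% FBS/2 mM glutamine/pen-strep, compounds diluted in DMSO/media.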

A short description of series [2]: Liver Microsome Stability Assay (rat). The note with it: rat liver microsomes, with NADPH, 1.0 uM compound. (In general: Liver microsomes are a subcellular fraction often used to study metabolism.)
Experimental: (§1) Stability of a compound was assessed in the presence of liver microsomes from various sources—mouse, rat, monkey and human liver microsomes. 1.0 uM compound, 0.4% DMSO in 0.1 M Potassium Phosphate with 1.0 mg/mL liver microsomes, were incubated at 37° C. with or without 1 mM NADPH. The samples were quenched at 0, and 30 minutes.
The nature of series [3]: Liver Microsome Stability Assay (monkey). Conditions: monkey liver microsomes, with NADPH, 1.0 uM compound.
Experimental: as §1
For series [4], the system named is multiple myeloma cell line NCI-H929. The series can be described thus: H929 Cell Viability Assay. Conditions: Homo sapiens, NCI-H929, 48 h, NCI-H929 cells, Celltiter-Glo. The series is classed as cell-based, human. An outline of the steps: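 Cells in RPMI 1640/10% FBS; compound dilutions in DMSO/media; 48 h, 37° C, 5% CO2; CellTiter-Glo luciferase readout for viability.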

Series [5] in a line: Liver Microsome Stability Assay (mouse). Conditions: mouse liver microsomes, with NADPH, 1.0 uM compound.
Experimental: as §1
Series [6] deals with PD1-ss+10aa/Gaussia Luciferase. The series can be described thus: Dox-Induced PD1-ss-Gluc Assay. Type of series: cell-based. The note with it: 24 hr Dox induction, 293FRT/TO cells, read-out: 24 hr Dox Inducible PD1ssGluc 293FRT/TO: Mean IC50. In outline: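 Compounds were added in DMSO/media with doxycycline and incubated at 37 °C, 5% CO2, on 293 T-REx cells plated one day earlier. These cells stably express, under tetracycline-regulated control, a Gaussia luciferase fused to the PD1 signal peptide plus 10 residues. Structures drawn without stereochemistry were tested as stereoisomer mixtures.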

Series [7] can be described thus: Liver Microsome Stability Assay (human). The note with it: human liver microsomes, with NADPH, 1.0 uM compound.
Experimental: as §1
Series [8] has as its system IL-2-FL/Gaussia Luciferase. The experiment in a line: Dox Induced IL2-FL-Gluc Assay. The series is classed as cell-based. Conditions: for IC50: 24 hr Dox induction, 293FRT/TO cells, read-out: 24 hr Dox Inducible IL2FLGluc 293FRT/TO: Mean IC50; for 24 hr Dox Inducible IL2FLGluc 293FRT/TO: IL2/PD1: ratio of IL2FLGluc IC50 to PD1ssGluc IC50. In outline:
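Stable Flp-In 293 T-REx line, Tet-regulated IL-2 (aa 1-153)–Gaussia luciferase fusion; hygromycin/blasticidin selected. Plated day -1; compound + doxycycline added next day; 37° C, 5% CO2.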

In series [9] the test system is TNFα-FL/Gaussia Luciferase. The series can be described thus: Dox Induced TNFα-FL-Gluc Assay. The series is classed as cell-based. The note with it: for IC50: 24 hr Dox induction, 293FRT/TO cells, read-out: 24 hr Dox Inducible TNFaFLGluc 293FRT/TO: Mean IC50; for 24 hr Dox Inducible TNFaFLGluc 293FRT/TO: TNF/PD1: ratio of TNFaFLGluc IC50 to PD1ssGluc IC50. An outline of the steps: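 Cell line: stable Flp-In 293 T-REx, TNFα-FL(1-233)-Gaussia luciferase fusion, T-REx-inducible. Plated day -1; compounds in DMSO/media + doxycycline, 37 °C, 5% CO2. Undefined stereocentres = mixture tested.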

Series [10] deals with HER3-ss+4aa/Gaussia Luciferase. The series can be described thus: Dox-Induced Her3-ss-Gluc Assay. The series is classed as cell-based. The note with it: 24 hr Dox induction, 293FRT/TO cells, read-out: 24 hr Dox Inducible Her3(ss + 4)Gluc 293FRT/TO: Mean IC50. An outline of the steps: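 Flp-In 293 T-REx cells, stable HER3-ss+4aa/Gaussia luciferase insert, hygromycin/blasticidin selected; plated day before; compound in DMSO/media + doxycycline; 37° C., 5% CO2.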

Setting [11] is: '<=>' given where both are I.A.

As a reminder, the EC50 is the concentration giving half of the maximal effect. For `O=C(Nc1nc([C@H]2CCCN2c2ccc(OC3CCNCC3F)cc2)cs1)c1cccn1Cc1ccnc(F)c1` (stereo partly drawn) [Compound A107, N-(4-((2R)-1-(4-((3-fluoropiperidin-4-yl)oxy)phenyl)pyrrolidin-2-yl)thiazol-2-yl)-1-((2-fluoropyridin-4-yl)methyl)-1H-pyrrole-2-carboxamide], the values for the EC50 in [1] and in series [4] were 7280 nM and 4550 nM, respectively. In addition, the “Liver Microsome Stability (Multiple Species): Rat - % Remaining after 30 min w/NADPH” value in series [2] came to 64.6%. Also, the “Liver Microsome Stability (Multiple Species): Monkey - % Remaining after 30 min w/NADPH” value in series [3] stood at 12.7%. Also, the “Liver Microsome Stability (Multiple Species): Mouse - % Remaining after 30 min w/NADPH” value in series [5] was found to be 6%. The IC50 worked out at 205 nM in [6], 462 nM in [8], 2910 nM in series [9] and 322 nM in series [10]. Besides, the “Liver Microsome Stability (Multiple Species): Human - % Remaining after 30 min w/NADPH” value in series [7] is 23.1%. The “24 hr Dox Inducible IL2FLGluc 293FRT/TO: IL2/PD1” value in series [8] is 2.3. Further, in series [9], the “24 hr Dox Inducible TNFaFLGluc 293FRT/TO: TNF/PD1” value came to 14.2.
As to `CC(=O)Nc1ccc(N2CCC[C@@H]2c2csc(NC(=O)c3cccn3Cc3ccncc3)n2)cc1` [Compound A46, (R)-N-(4-(1-(4-acetamidophenyl)pyrrolidin-2-yl)thiazol-2-yl)-1-(pyridin-4-ylmethyl)-1H-pyrrole-2-carboxamide], the EC50 in series [1] is more than 25000 nM; in series [4], 79 nM. In addition, in series [2], the “Liver Microsome Stability (Multiple Species): Rat - % Remaining after 30 min w/NADPH” value was determined as 9.73%. Moreover, the “Liver Microsome Stability (Multiple Species): Monkey - % Remaining after 30 min w/NADPH” value in [3] is on record as 2.39%. In addition, the “Liver Microsome Stability (Multiple Species): Mouse - % Remaining after 30 min w/NADPH” value in series [5] turned out to be 4.16%. The IC50 was 3 nM in [6], 4.11 nM in [8], 52 nM in [9] and 6.51 nM in series [10]. Further, in [7], the “Liver Microsome Stability (Multiple Species): Human - % Remaining after 30 min w/NADPH” value is recorded as 3.12%. Further, in series [8], the “24 hr Dox Inducible IL2FLGluc 293FRT/TO: IL2/PD1” value is given as 1.4. For the same compound, the “24 hr Dox Inducible TNFaFLGluc 293FRT/TO: TNF/PD1” value in [9] was 17.3.
With `O=C(Nc1nc([C@H]2CCCN2c2ccc(OC3=CCNCC3)cc2)cs1)c1cccn1Cc1ccnc(F)c1` [Compound A89, (R)-1-((2-fluoropyridin-4-yl)methyl)-N-(4-(1-(4-((1,2,3,6-tetrahydropyridin-4-yl)oxy)phenyl)pyrrolidin-2-yl)thiazol-2-yl)-1H-pyrrole-2-carboxamide], the figures for the EC50 in series [1] and in series [4] were 8300 nM and 6370 nM, respectively. For the same compound, the “Liver Microsome Stability (Multiple Species): Rat - % Remaining after 30 min w/NADPH” value in series [2] turned out to be 56.9%. In addition, the “Liver Microsome Stability (Multiple Species): Monkey - % Remaining after 30 min w/NADPH” value in series [3] was 2.45%. Also, the “Liver Microsome Stability (Multiple Species): Mouse - % Remaining after 30 min w/NADPH” value in [5] amounted to 40.4%. In addition, the IC50 in [6] worked out at 558 nM; in [8], 2710 nM; in series [9], 18400 nM; in series [10], 1110 nM. In addition, the “Liver Microsome Stability (Multiple Species): Human - % Remaining after 30 min w/NADPH” value in series [7] came out at 47%. Besides, the “24 hr Dox Inducible IL2FLGluc 293FRT/TO: IL2/PD1” value in [8] is on record as 4.9. Further, the “24 hr Dox Inducible TNFaFLGluc 293FRT/TO: TNF/PD1” value in series [9] is on record as 32.9.
Consider `CC(C)n1cnc(-c2cccc(-c3csc(NC(=O)c4cccn4Cc4ccnc(F)c4)n3)c2)c1` [Compound A167, 1-((2-fluoropyridin-4-yl)methyl)-N-(4-(3-(1-isopropyl-1H-imidazol-4-yl)phenyl)thiazol-2-yl)-1H-pyrrole-2-carboxamide], for which the EC50 in series [1] and in [4] was more than 25000 nM each time. Besides, in [2], the “Liver Microsome Stability (Multiple Species): Rat - % Remaining after 30 min w/NADPH” value stood at 13%. Also, in [3], the “Liver Microsome Stability (Multiple Species): Monkey - % Remaining after 30 min w/NADPH” value came out at 0.15%. Further, the “Liver Microsome Stability (Multiple Species): Mouse - % Remaining after 30 min w/NADPH” value in series [5] came to 12%. Moreover, the IC50 in [6] was 362 nM; in series [8], 1450 nM; in series [9], more than 25000 nM; in series [10], 603 nM. Besides, the “Liver Microsome Stability (Multiple Species): Human - % Remaining after 30 min w/NADPH” value in [7] was 0.06%. The “24 hr Dox Inducible IL2FLGluc 293FRT/TO: IL2/PD1” value in series [8] worked out at 4. Besides, the “24 hr Dox Inducible TNFaFLGluc 293FRT/TO: TNF/PD1” value in series [9] is more than 69.1.
`O=C(Nc1nc(CCc2coc(-c3ccccc3)n2)cs1)c1cccn1Cc1ccncc1` [Compound E12, N-(4-(2-(2-phenyloxazol-4-yl)ethyl)thiazol-2-yl)-1-(pyridin-4-ylmethyl)-1H-pyrrole-2-carboxamide]: the EC50 in series [1] and in series [4] was more than 25000 nM throughout. Also, the “Liver Microsome Stability (Multiple Species): Rat - % Remaining after 30 min w/NADPH” value in [2] was 0.83%. In addition, in series [3], the “Liver Microsome Stability (Multiple Species): Monkey - % Remaining after 30 min w/NADPH” value is reported as 0.19%. Moreover, the “Liver Microsome Stability (Multiple Species): Mouse - % Remaining after 30 min w/NADPH” value in series [5] is reported as 0.23%. For the same compound, the IC50 was found to be 124 nM in [6] (mean), 432 nM in series [8] (mean), 7890 nM in [9] (mean) and 213 nM in [10] (mean). The “Liver Microsome Stability (Multiple Species): Human - % Remaining after 30 min w/NADPH” value in [7] is recorded as 0.45%. The “24 hr Dox Inducible IL2FLGluc 293FRT/TO: IL2/PD1” value in series [8] (setting [11]) amounted to 3.5. Moreover, in series [9] (setting [11]), the “24 hr Dox Inducible TNFaFLGluc 293FRT/TO: TNF/PD1” value worked out at 63.4.
Take `O=C(Nc1nc([C@H]2CCCN2c2ccc(OC3CN(C(=O)CO)C3)cc2)cs1)c1cccn1Cc1ccnc(F)c1` [Compound A110, (R)-1-((2-fluoropyridin-4-yl)methyl)-N-(4-(1-(4-((1-(2-hydroxyacetyl)azetidin-3-yl)oxy)phenyl)pyrrolidin-2-yl)thiazol-2-yl)-1H-pyrrole-2-carboxamide]: the figures for the EC50 in series [1] and in [4] were more than 25000 nM and 884 nM, respectively. In addition, the “Liver Microsome Stability (Multiple Species): Rat - % Remaining after 30 min w/NADPH” value in [2] was determined as 55.7%. The “Liver Microsome Stability (Multiple Species): Monkey - % Remaining after 30 min w/NADPH” value in series [3] came out at 4.58%. Besides, in series [5], the “Liver Microsome Stability (Multiple Species): Mouse - % Remaining after 30 min w/NADPH” value is 31.2%. Also, the IC50 in series [6] was found to be 23.2 nM; in [8], 79.8 nM; in [9] it was 310 nM; in series [10], 36.4 nM. The “Liver Microsome Stability (Multiple Species): Human - % Remaining after 30 min w/NADPH” value in series [7] was 10.5%. In series [8], the “24 hr Dox Inducible IL2FLGluc 293FRT/TO: IL2/PD1” value is 3.4. For the same compound, in series [9], the “24 hr Dox Inducible TNFaFLGluc 293FRT/TO: TNF/PD1” value amounted to 13.4.
`O=C(Nc1nc(/C=C/c2coc(C3CCCCC3)n2)cs1)c1cccn1Cc1ccncc1` [Compound B39, (E)-N-(4-(2-(2-cyclohexyloxazol-4-yl)vinyl)thiazol-2-yl)-1-(pyridin-4-ylmethyl)-1H-pyrrole-2-carboxamide]: the values for the EC50 in [1] and in series [4] were 13100 nM and 10200 nM, respectively. Also, the “Liver Microsome Stability (Multiple Species): Rat - % Remaining after 30 min w/NADPH” value in series [2] stood at 5.38%. Also, the “Liver Microsome Stability (Multiple Species): Monkey - % Remaining after 30 min w/NADPH” value in series [3] stood at 0.47%. Besides, the “Liver Microsome Stability (Multiple Species): Mouse - % Remaining after 30 min w/NADPH” value in series [5] worked out at 16.5%. The IC50 in series [6] was 268 nM; in [8], 1960 nM; in series [9], 6460 nM; in series [10], 945 nM. Moreover, in series [7], the “Liver Microsome Stability (Multiple Species): Human - % Remaining after 30 min w/NADPH” value turned out to be 0.27%. For the same compound, the “24 hr Dox Inducible IL2FLGluc 293FRT/TO: IL2/PD1” value in [8] turned out to be 7.3. In addition, the “24 hr Dox Inducible TNFaFLGluc 293FRT/TO: TNF/PD1” value in series [9] was 24.1.

These data come from US20230286973A1, “PROTEIN SECRETION INHIBITORS” (KEZAR LIFE SCIENCES, priority 2020, published 2023).
